In one assay the target is mouse ENT-1 transporter (Mus musculus (Mouse), UniProt Q9JIM1). The assay can be described thus: Determination of adenosine transport activity (ENT1, [3H]-adenosine uptake). The class given is cell-based. The following applies: stable cells expressing mouse ENT-1; [2,8-3H]-adenosine 6 nM, 20 min. As to the method:
To measure adenosine transport activity of ENT-1 mammalian cells, stable cells expressing the mouse ENT-1 transporter were plated on day 1 in 96-well culture plates at the density of 60,000 cells/well, in complete DMEM/F12 medium supplemented with glutamax, 10% FBS and 10 μg/ml puromycin. On day 2, the medium was aspirated and the cells were washed twice with uptake buffer (10 mM Hepes-Tris, pH 7.4 containing 150 mM NaCl, 1 mM
CaCl2, 2.5 mM KCl, 2.5 mM MgSO4, 10 mM D-glucose) (UB). For inhibition experiments, cells were then incubated at RT with various concentrations of compounds with 1% DMSO final. Non-specific uptake was defined in the presence of 10 μM S-(4-Nitrobenzyl)-6-thioinosine (NBTI, Sigma Cat #N2255).
A solution containing [2,8-^3H]-adenosine 6 nM (40 Ci/mmol, American Radiolabeled chemicals Inc, Cat #ART 0287A) was then immediately added to the wells. The plates were then incubated for 20 min with gentle shaking and the reaction was stopped by aspiration of the mixture and washing (three times) with ice-cold UB. The cells were lysed by the addition of scintillation liquid, shaken 3 hours and the radioactivity in the cells was estimated using a microplates scintillation counter (TopCount NXT, Packard).

The test system of assay [1] is behavioral signature of compound-treated mice. The assay can be described thus: SmartCube behavioral signature similarity analysis. The following applies: for SmartCube similarity to major classes of compounds: i.p., in words; for discrimination rate vs Clozapine (1.0 mg/kg) / discrimination rate vs Olanzapine (0.25 mg/kg) / discrimination rate vs Risperidone (0.06 mg/kg): rate <=0.70 = similar. The assay is classed as in vivo, mouse. From the text: In addition to the reversal of L-687,414 induced hyperlocomotion experiment as described above, some compounds of the present invention have been tested in SmartCube®, an automated system in which the behaviors of compound-treated mice in response to multiple challenges are captured by digital video and analyzed with computer algorithms (Roberds et al., Frontiers in Neuroscience, 2011, Vol. 5, Art. 103, 1-4; Vadim Alexandrov, Dani Brunner, Taleen Hanania, Emer Leahy Eur. J. Pharmacol. 2015, 750, 82-99). In this way, the neuro-pharmacological effects of a test compound can be predicted by similarity to major classes of compounds, such as antipsychotics, anxiolytics and antidepressants.
SmartCube® was used to compare the behavioral signature of a test compound to a database of behavioral signatures obtained from a large set of clinically approved reference drugs, grouped per indications. In this way, the neuro-pharmacological effects of a test compound can be predicted by similarity to major classes of compounds, such as antipsychotics, anxiolytics and antidepressants. This approach is ideally suited to screen collections of existing drugs or drug candidates with previously unknown neuropharmacology, which could expedite the development of new and unexpected treatments for psychiatric disorders.
Some compounds of the present invention were injected i.p. at different doses 15 minutes before the test. At least 8 mice were used in each treatment group. Digital videos of the subjects were processed with computer vision algorithms to extract over 2000 dependent measures including frequency and duration of many different behavioral states. The results of the classifications are presented as bar charts for each compound and dose (mg/kg), the Y-axis indicates the relative probability that the test compound will show efficacy in the specific CNS indication.
Compounds of the present invention show similar signatures to those of atypical antipsychotics. An independent analysis was performed on the unclassified data to determine the similarity of the example compounds to active doses of known atypical antipsychotics. For this analysis, we use discrimination rate as the measure of separability between the two drugs, i.e. one drug's “distinguishability” from another. A rate equal to 50% (or 0.5) corresponds to zero distinguishability. […] In most cases, the example compounds show a similarity to risperidone, clozapine and olanzapine with a discrimination rate of ≤0.70.

Assay [2] relates to L-687,414-induced hyperlocomotion. Kind of assay: L-687,414-induced hyperlocomotion. The assay is classed as in vivo, mouse. The following applies: mice; 30 mg/kg ip, 15 min before 50 mg/kg s.c. L-687,414. As to the method:
The described compounds of formula I reduce L-687,414-induced hyperlocomotion. This was assessed by using a computerized Digiscan 16 Animal Activity Monitoring System (Omnitech Electronics, Columbus, Ohio) to quantify locomotor activity. Animals were kept under a 12 h light/dark cycle and experiments were performed during the light period. Each activity monitoring chamber consisted of a Plexiglas box (41×41×28 cm; W×L×H) with sawdust bedding on the floor surrounded by invisible horizontal and vertical infrared sensor beams. The test boxes were divided by a Plexiglas cross providing each mouse with 20×20 cm of moving space. Cages were connected to a Digiscan Analyzer linked to a computer that constantly collected the beam status information. Records of photocell beam interruptions for individual animals were taken every 5 min over the duration of the experimental session and the sum of the first 6 periods was used as the final parameter. At least 8 mice were used in each treatment group. Compounds were administered i.p. 15 min before a s.c. injection of 50 mg/kg of L-687,414. Mice were then transferred from their home cage to the recording chambers for a 15-min habituation phase allowing free exploration of the new environment. Horizontal activity was then recorded for a 30-min time period. The % inhibition of L-687,414-induced hyperlocomotion was calculated according to the equation: ((Veh+L-687,414horizontal activity−drug+L-687,414horizontal activity)/Veh+L-687,414horizontal activity)×100
ID50 values, defined as doses of each compound producing 50% inhibition of L-687,414-induced hyperlocomotion, were calculated by linear regression analysis of a dose-response data using an Excel-based computer-fitting program.
As data was not presupposed to be normally distributed, groups treated with test compounds were statistically compared with the control (vehicle-treated) group using one-tailed Mann Whitney U tests. […]

Chain of mouse ENT-1 transporter (Q9JIM1 whole entry): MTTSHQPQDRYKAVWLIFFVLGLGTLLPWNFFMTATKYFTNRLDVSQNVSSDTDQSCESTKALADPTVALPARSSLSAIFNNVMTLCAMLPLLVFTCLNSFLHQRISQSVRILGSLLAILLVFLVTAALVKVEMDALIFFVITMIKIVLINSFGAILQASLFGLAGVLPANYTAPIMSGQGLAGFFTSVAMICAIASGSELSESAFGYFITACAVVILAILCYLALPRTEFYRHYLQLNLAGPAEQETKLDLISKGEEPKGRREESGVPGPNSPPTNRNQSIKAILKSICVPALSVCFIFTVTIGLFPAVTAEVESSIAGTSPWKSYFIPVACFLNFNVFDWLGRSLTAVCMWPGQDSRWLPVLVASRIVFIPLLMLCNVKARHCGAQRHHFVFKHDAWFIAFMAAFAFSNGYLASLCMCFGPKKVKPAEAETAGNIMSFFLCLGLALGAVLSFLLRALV

As usually defined, the IC50 is the concentration that gives 50% inhibition. Lower therefore signals greater potency in that assay. Consider “3,3-Dimethyl-6-(2-methyl-1-oxidopyrimidin-1-ium-5-yl)-1-(6-methylsulfonylpyrazin-2-yl)indol-2-one [Example 15]”, for which, at mouse ENT-1 transporter, the IC50 was found to be 218 nM. That is a sub-micromolar value.

At mouse ENT-1 transporter, `Cc1ncc(-c2ccc3c(c2)N(c2ccc4ccsc4c2)C(=O)C3(C)C)cn1` [Example 1, 1-(Benzo[b]thiophen-6-yl)-3,3-dimethyl-6-(2-methylpyrimidin-5-yl)indolin-2-one] showed a 50% inhibitory concentration (IC50) of 189 nM. The IC50 values of the last two compounds are within 1.5-fold of each other.

At mouse ENT-1 transporter, `Cc1ncc(-c2ccc3c(c2)N(c2cccc4sccc24)C(=O)C3(C)C)cn1` [Example 2, 1-(Benzo[b]thiophen-4-yl)-3,3-dimethyl-6-(2-methylpyrimidin-5-yl)indolin-2-one] showed an IC50 of 844 nM.

Take `Cc1ncc(-c2ccc3c(c2)N(c2cncc(S(C)(=O)=O)c2)C(=O)C3(C)C)cn1` [Example 3, 3,3-Dimethyl-6-(2-methylpyrimidin-5-yl)-1-(5-(methylsulfonyl)pyridin-3-yl)indolin-2-one]: the “SmartCube similarity to major classes of compounds” value in assay [1] is listed as “similarity to atypical antipsychotics”. Moreover, in assay [1] (test compound 3 mg/kg i.p.), the “discrimination rate vs Clozapine (1.0 mg/kg)” value is 0.58, the “discrimination rate vs Olanzapine (0.25 mg/kg)” value turned out to be 0.60 and the “discrimination rate vs Risperidone (0.06 mg/kg)” value is recorded as 0.67. This compound came in with an IC50 against mouse ENT-1 transporter of 32.1 nM. For the same compound, the “Inhibition, ip of L-687,414-induced hyperlocomotion” value in assay [2] turned out to be 92.8%.

At mouse ENT-1 transporter, `Cc1ncc(-c2ccc3c(c2)N(c2cncc(S(C)(=O)=O)n2)C(=O)C3(C)C)cn1` [Example 4, 3,3-Dimethyl-6-(2-methylpyrimidin-5-yl)-1-(6-(methylsulfonyl)pyrazin-2-yl)indolin-2-one] came in with an IC50 of 40.1 nM.

Take `Cc1ncc(-c2ccc3c(c2)N(c2cccc(S(C)(=O)=O)c2)C(=O)C3(C)C)cn1` [Example 5, 3,3-Dimethyl-6-(2-methylpyrimidin-5-yl)-1-(3-(methylsulfonyl)phenyl)indolin-2-one]: in assay [1], the “SmartCube similarity to major classes of compounds” value is given as “similarity to atypical antipsychotics”. In assay [1] (test compound 5 mg/kg i.p.), the “discrimination rate vs Clozapine (1.0 mg/kg)” value is on record as 0.55, the “discrimination rate vs Olanzapine (0.25 mg/kg)” value amounted to 0.54 and the “discrimination rate vs Risperidone (0.06 mg/kg)” value worked out at 0.52. The compound further registered an IC50 on mouse ENT-1 transporter of 106 nM. The “Inhibition, ip of L-687,414-induced hyperlocomotion” value in assay [2] was 96%.

At mouse ENT-1 transporter, `Cc1ncc(-c2ccc3c(c2)N(c2cncc(S(=O)(=O)N(C)C)c2)C(=O)C3(C)C)cn1` [Example 6, 5-(3,3-Dimethyl-6-(2-methylpyrimidin-5-yl)-2-oxoindolin-1-yl)-N,N-dimethylpyridine-3-sulfonamide] registered an IC50 of 44.9 nM.

Compound `Cc1ncc(-c2ccc3c(c2)N(c2cncc(S(=O)(=O)C(C)C)c2)C(=O)C3(C)C)cn1` [Example 7, 1-(5-(Isopropylsulfonyl)pyridin-3-yl)-3,3-dimethyl-6-(2-methylpyrimidin-5-yl)indolin-2-one] registered an IC50 on mouse ENT-1 transporter of 135 nM. Compared with the last compound, the IC50 is about 3-fold higher.

For `Cc1ncc(-c2ccc3c(c2)N(c2cncc(S(=O)(=O)C4CC4)c2)C(=O)C3(C)C)cn1` [Example 8, 1-(5-(Cyclopropylsulfonyl)pyridin-3-yl)-3,3-dimethyl-6-(2-methylpyrimidin-5-yl)indolin-2-one], at mouse ENT-1 transporter, the IC50 was 40 nM.

Regarding `CSc1cncc(N2C(=O)C(C)(C)c3ccc(-c4cnc(C)nc4)cc32)c1` [Example 9, 3,3-Dimethyl-6-(2-methylpyrimidin-5-yl)-1-(5-(methylthio)pyridin-3-yl)indolin-2-one], on mouse ENT-1 transporter, the IC50 turned out to be 218 nM.

In the case of `Cc1ncc(-c2ccc3c(c2)N(c2cncc(S(N)(=O)=O)c2)C(=O)C3(C)C)cn1` [Example 10, 5-(3,3-Dimethyl-6-(2-methylpyrimidin-5-yl)-2-oxoindolin-1-yl)pyridine-3-sulfonamide], the IC50 against mouse ENT-1 transporter worked out at 128 nM.

For the compound `Cc1ncc(-c2ccc3c(c2)N(c2cncc(S(=O)(=O)N4CCC4)c2)C(=O)C3(C)C)cn1` [Example 11, 1-(5-(Azetidin-1-ylsulfonyl)pyridin-3-yl)-3,3-dimethyl-6-(2-methylpyrimidin-5-yl)indolin-2-one], 169 nM corresponded to half-maximal inhibition at mouse ENT-1 transporter (IC50).

Turning to `COCCN(C)S(=O)(=O)c1cncc(N2C(=O)C(C)(C)c3ccc(-c4cnc(C)nc4)cc32)c1` [Example 12, 5-(3,3-dimethyl-6-(2-methylpyrimidin-5-yl)-2-oxoindolin-1-yl)-N-(2-methoxyethyl)-N-methylpyridine-3-sulfonamide], the half-inhibitory concentration (IC50) at mouse ENT-1 transporter is 79.3 nM. Against the preceding compound, the IC50 is about 2.1-fold lower.

As to `CNS(=O)(=O)c1cncc(N2C(=O)C(C)(C)c3ccc(-c4cnc(C)nc4)cc32)c1` [Example 13, 5-(3,3-Dimethyl-6-(2-methylpyrimidin-5-yl)-2-oxoindolin-1-yl)-N-methylpyridine-3-sulfonamide], half-maximal inhibition against mouse ENT-1 transporter (IC50) was put at 71.7 nM.

`Cc1ncc(-c2ccc3c(c2)N(c2cnc(C4CC4)c(S(C)(=O)=O)c2)C(=O)C3(C)C)cn1` [Example 14, 1-(6-Cyclopropyl-5-(methylsulfonyl)pyridin-3-yl)-3,3-dimethyl-6-(2-methylpyrimidin-5-yl)indolin-2-one] displayed an IC50 against mouse ENT-1 transporter of 38.5 nM.

On to `Cc1cncc(-c2ccc3c(c2)N(c2cncc(S(C)(=O)=O)c2)C(=O)C3(C)C)c1` [Example 16, 3,3-Dimethyl-6-(5-methylpyridin-3-yl)-1-(5-(methylsulfonyl)pyridin-3-yl)indolin-2-one], for which, on mouse ENT-1 transporter, the IC50 came to 313 nM.

`Cc1ncc(-c2ccc3c(c2)N(c2cncc(S(C)(=O)=O)c2)C(=O)C3(C)C)cc1F` [Example 17, 6-(5-Fluoro-6-methylpyridin-3-yl)-3,3-dimethyl-1-(5-(methylsulfonyl)pyridin-3-yl)indolin-2-one] returned an IC50 against mouse ENT-1 transporter of 27 nM.

At mouse ENT-1 transporter, `Cc1ncc(-c2ccc3c(c2)N(c2cnc(S(C)(=O)=O)cn2)C(=O)C3(C)C)cn1` [Example 18, 3,3-Dimethyl-6-(2-methylpyrimidin-5-yl)-1-(5-(methylsulfonyl)pyrazin-2-yl)indolin-2-one] came in with an IC50 of 27 nM.

In turn, `Cc1ncc(-c2ccc3c(c2)N(c2cncc(S(C)(=O)=O)c2)C(=O)C32CCC2)cn1` [Example 20, 6′-(2-Methylpyrimidin-5-yl)-1′-(5-(methylsulfonyl)pyridin-3-yl)spiro[cyclobutane-1,3′-indolin]-2′-one] yielded an IC50 against mouse ENT-1 transporter of 230 nM.

The values above are taken from patent US10377746B2, “Indolin-2-one derivatives” (Hoffmann-La Roche Inc., priority 2015, dated 2019).
